# Biological target: c-kit (Homo sapiens (Human), UniProt P10721)
# Experiment: Mo7e cell proliferation assay (SCF dependent proliferation)
# Format: cell-based
# Settings: Mo7e cells stimulated with human recombinant SCF, 48 hours, 1% FBS
# Description: Compounds of Formula (I) and Formula (II) provided herein were assayed to measure their capacity to inhibit c-kit and PDGFR kinases using the appropriate assay described below: c-Kit inhibition was evaluated using the Mo7e cell proliferation assay, and PDGFR inhibition was evaluated using the Rat A10 cell proliferation assay and the Human TG/HA-VSMC cell proliferation assay.
# Mo7e Cell Proliferation Assay
# The compounds of Table 1 and Table 2 were tested for inhibition of SCF dependent proliferation using human Mo7e cells which endogenously express c-kit in a 384 well format. […] After 48 hours of incubation at 37° C., cell viability was measured by adding 25 uL of CellTiter Glo (Promega) to the cells and the luminescence was measured by a CLIPR CCD camera (Molecular Devices).
# The IC50 value is given as that concentration of the test compound in question that provoke a response halfway between the baseline and maximum responses.
# Sequence of c-kit (P10721 26-976): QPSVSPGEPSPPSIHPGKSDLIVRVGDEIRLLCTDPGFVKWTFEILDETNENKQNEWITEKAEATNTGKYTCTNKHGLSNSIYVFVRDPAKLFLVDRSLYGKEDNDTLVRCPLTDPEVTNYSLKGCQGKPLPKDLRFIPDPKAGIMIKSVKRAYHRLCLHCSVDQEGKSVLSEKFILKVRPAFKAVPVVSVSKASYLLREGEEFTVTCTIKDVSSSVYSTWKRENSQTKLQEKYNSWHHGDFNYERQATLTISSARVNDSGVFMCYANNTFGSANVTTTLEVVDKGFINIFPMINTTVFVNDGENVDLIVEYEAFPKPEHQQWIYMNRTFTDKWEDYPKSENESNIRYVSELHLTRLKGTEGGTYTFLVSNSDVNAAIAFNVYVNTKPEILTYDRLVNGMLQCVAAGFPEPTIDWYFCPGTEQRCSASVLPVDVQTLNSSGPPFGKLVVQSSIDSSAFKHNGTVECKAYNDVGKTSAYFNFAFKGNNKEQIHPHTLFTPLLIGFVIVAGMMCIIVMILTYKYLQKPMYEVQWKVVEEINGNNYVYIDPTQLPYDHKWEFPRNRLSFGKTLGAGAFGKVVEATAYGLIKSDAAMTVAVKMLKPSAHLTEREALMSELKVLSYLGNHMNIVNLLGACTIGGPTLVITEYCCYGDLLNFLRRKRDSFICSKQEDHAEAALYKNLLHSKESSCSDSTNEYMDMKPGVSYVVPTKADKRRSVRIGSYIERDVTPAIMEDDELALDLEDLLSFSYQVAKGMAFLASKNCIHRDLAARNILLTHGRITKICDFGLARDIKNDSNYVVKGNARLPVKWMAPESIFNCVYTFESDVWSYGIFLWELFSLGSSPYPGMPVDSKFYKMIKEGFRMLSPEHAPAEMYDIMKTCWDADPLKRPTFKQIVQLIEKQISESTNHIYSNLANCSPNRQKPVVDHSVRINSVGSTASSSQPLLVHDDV
row,SMILES,IC50 [nM]
1,Cc1ccc(-c2noc(C3CC(F)(F)C3)n2)cc1NC(=O)c1cnc2ccc(COCCO)cn12 [F38],25
2,Cc1ccc(-c2noc([C@H]3C[C@H](NC(=O)OC(C)(C)C)C3)n2)cc1NC(=O)c1cnc2ccccn12 [F127],353
3,Cc1ccc(-c2noc(C3CC(C)(C)C3)n2)cc1NC(=O)c1cnc2ccccn12 [F58],20
4,Cc1ccc(-c2noc(COC3CC(F)(F)C3(F)F)n2)cc1NC(=O)c1cnc2ccccn12 (centres unmarked) [F35],3
5,Cc1ccc(-c2noc(C3(O)CCC3)n2)cc1NC(=O)c1cnc2ccccn12 [F167],144
6,O=C(Nc1cc(-c2noc(C3CC(F)(F)C3)n2)ccc1F)c1cnc2ccccn12 [F134],144
7,COC(=O)NC1CC(c2nc(-c3ccc(C)c(NC(=O)c4cnc5ccccn45)c3)no2)C1 (centres unmarked) [F142],148
8,"Cc1ccc(-c2noc([C@@H]3CC3(F)F)n2)cc1NC(=O)c1cnc2ccccn12 (stereo in doubt) [F88, N-(5-(5-(2,2-difluorocyclopropyl)-1,2,4-oxadiazol-3-yl)-2-methylphenyl)imidazo[1,2-a]pyridine-3-carboxamide]",66
9,"Cc1ccc(-c2noc(C3CC(n4cccn4)C3)n2)cc1NC(=O)c1cnc2ccccn12 (centres unmarked) [F45, N-(5-(5-(3-(1H-pyrazol-1-yl)cyclobutyl)-1,2,4-oxadiazol-3-yl)-2-methylphenyl)imidazo[1,2-a]pyridine-3-carboxamide]",71
10,Cc1ccc(-c2noc(CNC(=O)C3CC3(F)F)n2)cc1NC(=O)c1cnc2ccccn12 (centres unmarked) [F140],132
11,COCc1n[nH]c(-c2ccc3ncc(C(=O)Nc4cc(-c5noc(C6CC(F)(F)C6)n5)ccc4C)n3c2)n1 [F84],22
12,Cc1ccc(-c2noc(C3(NC(=O)OC(C)(C)C)CCC3)n2)cc1NC(=O)c1cnc2ccccn12 [F136],171
13,Cc1ccc(-c2noc(C3CC(F)(F)C3)n2)cc1NC(=O)c1cnc2cc(CC(C)(C)O)ccn12 [F155],390
14,Cc1ccc(-c2noc(C3CC(F)(F)C3)n2)cc1NC(=O)c1cnc2ccc(-c3cnn(CC(=O)O)c3)cn12 [F147],351
15,CC1(C)CC(c2nc(-c3ccc(F)c(NC(=O)c4cnc5ccccn45)c3)no2)C1 [F156],125
16,"Cc1ccc(-c2noc([C@H]3C[C@@H]3F)n2)cc1NC(=O)c1cnc2ccccn12 [F110, N-(5-(5-((1R,2S)-2-fluorocyclopropyl)-1,2,4-oxadiazol-3-yl)-2-methylphenyl)imidazo[1,2-a]pyridine-3-carboxamide]",58
17,Cc1ccc(-c2noc(C3CC(=NOCCN4CCOCC4)C3)n2)cc1NC(=O)c1cnc2ccccn12 (centres unmarked) [F126],213
18,Cc1ccc(-c2noc(C3(CO)CC3)n2)cc1NC(=O)c1cnc2ccccn12 [F139],137
19,Cc1ccc(-c2noc(C3CC(n4cncn4)C3)n2)cc1NC(=O)c1cnc2ccccn12 (centres unmarked) [F150],167

row,SMILES,IC50 [nM]
1,CC(C)(O)Cn1cc(-c2ccc3ncc(C(=O)Nc4cc(-c5noc(C6CC(F)(F)C6)n5)ccc4F)n3c2)cn1 [F48],16
2,Cc1ccc(-c2noc([C@@H]3C[C@@H]3F)n2)cc1NC(=O)c1cnc2ccccn12 [F101],67
3,"Cc1ccc(-c2noc([C@H]3C[C@@](C)(O)C3)n2)cc1NC(=O)c1cnc2ccccn12 [F6, N-(5-(5-((1s,3s)-3-hydroxy-3-methylcyclobutyl)-1,2,4-oxadiazol-3-yl)-2-methylphenyl)imidazo[1,2-a]pyridine-3-carboxamide]",119
4,Cc1ccc(-c2noc(C3CC(F)(F)C3)n2)cc1NC(=O)c1cnc2cc(N3CCOC3=O)ccn12 [F68],39
5,Cc1ccc(-c2noc(C3CC(F)(F)C3)n2)cc1NC(=O)c1cnc2ccc(CC(C)(C)O)cn12 [F153],165
6,Cc1ccc(-c2noc(CC3CC3)n2)cc1NC(=O)c1cnc2ccccn12 [F105],40
7,"Cc1ccc(-c2noc(C3CC4(C3)OCCO4)n2)cc1NC(=O)c1cnc2ccccn12 [F8, N-(5-(5-(5,8-dioxaspiro[3.4]octan-2-yl)-1,2,4-oxadiazol-3-yl)-2-methylphenyl)imidazo[1,2-a]pyridine-3-carboxamide]",55
8,"Cc1ccc(-c2noc(C3CC(F)(F)C3)n2)cc1NC(=O)c1cnc2ccc(CO)cn12 [F37, N-(5-(5-(3,3-difluorocyclobutyl)-1,2,4-oxadiazol-3-yl)-2-methylphenyl)-6-(hydroxymethyl)imidazo[1,2-a]pyridine-3-carboxamide]",60
9,COCC(=O)NC1(c2nc(-c3ccc(C)c(NC(=O)c4cnc5ccccn45)c3)no2)CC1 [F132],554
10,O=C(Nc1cc(-c2noc(C3CC(F)(F)C3)n2)ccc1F)c1cnc2ccc(-c3cnn(CCN4CCOCC4)c3)cn12 [F51],85
11,Cc1ccc(-c2noc(C3(NS(C)(=O)=O)CC3)n2)cc1NC(=O)c1cnc2ccccn12 [F22],56
12,"Cc1nnc(-c2ccc3ncc(C(=O)Nc4cc(-c5noc(C6CC(F)(F)C6)n5)ccc4F)n3c2)[nH]1 [F61, N-(5-(5-(3,3-difluorocyclobutyl)-1,2,4-oxadiazol-3-yl)-2-fluorophenyl)-6-(5-methyl-4H-1,2,4-triazol-3-yl)imidazo[1,2-a]pyridine-3-carboxamide]",154
13,Cc1ccc(-c2noc(C3CC(F)(F)C3)n2)cc1NC(=O)c1cnc2ccc(-c3cscn3)cn12 [F46],13
14,Cc1ccc(-c2noc([C@H]3C[C@@H](N4CCOCC4)C3)n2)cc1NC(=O)c1cnc2ccccn12 [F124],257
15,Cc1ccc(-c2noc(C3CC(F)(F)C3)n2)cc1NC(=O)c1cnc2ccc(COCC(F)F)cn12 [F77],32
16,Cc1ccc(-c2noc(C3(NS(C)(=O)=O)CCC3)n2)cc1NC(=O)c1cnc2ccccn12 [F28],95
17,Cc1ccc(-c2noc(C3CCC3)n2)cc1NC(=O)c1cnc2ccc(COCC(F)(F)F)cn12 [F86],49
18,Cc1ccc(-c2noc(C3(C(N)=O)CC3)n2)cc1NC(=O)c1cnc2ccc(F)cn12 [F168],516
19,[2H]C([2H])([2H])O[C@H]1C[C@@H](c2nc(-c3ccc(C)c(NC(=O)c4cnc5ccccn45)c3)no2)C1 [F19],9

row,SMILES,IC50 [nM]
1,Cc1ccc(-c2noc(C3CCCC3)n2)cc1NC(=O)c1cnc2ccccn12 [F74],33
2,C=C1CC(c2nc(-c3ccc(C)c(NC(=O)c4cnc5ccccn45)c3)no2)C1 [F30],16
3,COCCOCc1ccc2ncc(C(=O)Nc3cc(-c4noc(C5CC(F)(F)C5)n4)ccc3C)n2c1 [F146],105
4,Cc1ccc(-c2noc(C3CC4(C3)OCCCO4)n2)cc1NC(=O)c1cnc2ccccn12 [F10],52
5,Cc1ccc(-c2noc(C3(N)CCC3)n2)cc1NC(=O)c1cnc2ccccn12 [F137],197
6,[2H]C([2H])([2H])c1ccn2c(C(=O)Nc3cc(-c4noc(C5CC(F)(F)C5)n4)ccc3C)cnc2c1 [F80],19
7,Cc1ccc(-c2noc(C3CC(F)(F)C3)n2)cc1NC(=O)c1cnc2ccc(CN3CCN(CCO)CC3)cn12 [F145],238
8,Cc1cn(-c2ccc3ncc(C(=O)Nc4cc(-c5noc(C6CC(F)(F)C6)n5)ccc4C)n3c2)cn1 [F95],77
9,"Cc1ccc(-c2noc(C3CC(O)(C4CC4)C3)n2)cc1NC(=O)c1cnc2ccccn12 (centres unmarked) [F31, N-(5-(5-(3-cyclopropyl-3-hydroxycyclobutyl)-1,2,4-oxadiazol-3-yl)-2-methylphenyl)imidazo[1,2-a]pyridine-3-carboxamide]",50
10,Cc1ccc(-c2noc(C3CC(F)(F)C3)n2)cc1NC(=O)c1cnc2ccc(COCC(F)(F)F)cn12 [F52],79
11,Cc1ccc(-c2noc(C3CC(F)(F)C3)n2)cc1NC(=O)c1cnc2ccc(CCC(=O)O)cn12 [F171],> 10000
12,"CON=C1CC(c2nc(-c3ccc(C)c(NC(=O)c4cnc5ccccn45)c3)no2)C1 (centres unmarked) [F7, N-(5-(5-(3-(methoxyimino)cyclobutyl)-1,2,4-oxadiazol-3-yl)-2-methylphenyl)imidazo[1,2-a]pyridine-3-carboxamide]",15
13,"Cc1ccc(-c2noc(C3CC(F)(F)C3)n2)cc1NC(=O)c1cnc2cc(-c3c[nH]nn3)ccn12 [F65, N-(5-(5-(3,3-difluorocyclobutyl)-1,2,4-oxadiazol-3-yl)-2-methylphenyl)-7-(1H-1,2,3-triazol-4-yl)imidazo[1,2-a]pyridine-3-carboxamide]",13
14,"Cc1ccc(-c2noc(C3(N(C)C)CC3)n2)cc1NC(=O)c1cnc2ccccn12 [F29, N-(5-(5-(1-(dimethylamino)cyclopropyl)-1,2,4-oxadiazol-3-yl)-2-methylphenyl)imidazo[1,2-a]pyridine-3-carboxamide]",58
15,Cc1ccn2c(C(=O)Nc3cc(-c4noc([C@H]5C[C@@H]5F)n4)ccc3C)cnc2c1 [F106],52
16,Cc1ccc2ncc(C(=O)Nc3cc(-c4noc(COC5CC(F)(F)C5(F)F)n4)ccc3C)n2c1 (centres unmarked) [F103],16
17,Cc1ccn2c(C(=O)Nc3cc(-c4noc(COC5CC(F)(F)C5(F)F)n4)ccc3C)cnc2c1 (centres unmarked) [F102],9
18,Cc1ccc(-c2noc(C3CC(F)(F)C3)n2)cc1NC(=O)c1cnc2ccc(CCC(=O)OC(C)(C)C)cn12 [F143],237
19,Cc1ccc(-c2noc(C3CC4(C3)OC[C@@H](C)O4)n2)cc1NC(=O)c1cnc2ccccn12 (some centres unmarked) [F9],52

# Same assay, conditions: Mo7e cells stimulated with human recombinant SCF, 48 hours, 20% FBS (values marked *)
row,SMILES,IC50 [nM]
1,Cc1ccc(-c2noc(C3CC(C)(O)C3)n2)cc1NC(=O)c1cnc2ccccn12 (centres unmarked) [F3],164
2,Cc1ccc(-c2noc(C3CC(=O)C3)n2)cc1NC(=O)c1cnc2ccccn12 [F11],41

# Source: US9199981B2 (NOVARTIS AG, priority 2011, dated 2015)
